Reference: ChEMBL document CHEMBL4028802, “DILIrank: the largest reference drug list ranked by the risk for developing drug-induced liver injury in humans” (Drug Discov Today, 2016)

What was measured:
Homo sapiens [1] = species: Homo sapiens; assay: Liver toxicity in human assessed as induction of drug-induced liver injury by measuring verified drug-induced liver injury concern status
Homo sapiens [2] = species: Homo sapiens; assay: Liver toxicity in human assessed as induction of drug-induced liver injury by measuring severity class index
Wherever DILI severity class is given: key of the grades not given here.

| Molecule | DILI_Concern (Homo sapiens [1]) | DILI_severity_class (Homo sapiens [2]) |
| --- | --- | --- |
| Nc1nnc(-c2cccc(Cl)c2Cl)c(N)n1 [LAMOTRIGINE] | Most-Dili-Concern | 7 |
| Cc1ccc(C)c(OCCCC(C)(C)C(=O)O)c1 [GEMFIBROZIL] | Most-Dili-Concern | 4 |
| CN(C)CCC=C1c2ccccc2COc2ccccc21 [DOXEPIN] | Less-Dili-Concern | 4 |
| C=CC1=C(C(=O)O)N2C(=O)[C@@H](NC(=O)/C(=N\O)c3csc(N)n3)[C@H]2SC1 | Less-Dili-Concern | 7 |
| CCCCC[C@](C)(O)/C=C/[C@@H]1[C@@H](C/C=C\CCCC(=O)O)[C@@H](O)C[C@H]1O.NC(CO)(CO)CO [CARBOPROST TROMETHAMINE] | No-Dili-Concern | 0 |
| COc1c(N2C[C@@H]3CCCN[C@@H]3C2)c(F)cc2c(=O)c(C(=O)O)cn(C3CC3)c12 [MOXIFLOXACIN] | Less-Dili-Concern | 8 |
| CCOC(=O)CN[C@@H](C(=O)N1CC[C@H]1C(=O)NCc1ccc(/C(N)=N\O)cc1)C1CCCCC1 [XIMELAGATRAN] | Most-Dili-Concern | 8 |
| N[C@@H](CC(=O)N1CCn2c(nnc2C(F)(F)F)C1)Cc1cc(F)c(F)cc1F [SITAGLIPTIN] | Less-Dili-Concern | 4 |
| COc1cc(C(=O)NCc2ccc(OCCN(C)C)cc2)cc(OC)c1OC [TRIMETHOBENZAMIDE] | Ambiguous-Dili-Concern | 5 |
| C[C@@H]1O[C@@H]1P(=O)(O)O [FOSFOMYCIN] | Less-Dili-Concern | 6 |
| CN1C(C(=O)Nc2ccccn2)=C(O)c2ccccc2S1(=O)=O [PIROXICAM] | Less-Dili-Concern | 3 |
| CCN(C(C)=O)c1cccc(-c2ccnc3c(C#N)cnn23)c1 [ZALEPLON] | No-Dili-Concern | 0 |
| Nc1ncn([C@H]2C[C@H](O)[C@@H](CO)O2)c(=O)n1 [DECITABINE] | Ambiguous-Dili-Concern | 4 |
| C=C[C@H]1C[N@@]2CC[C@H]1C[C@H]2[C@H](O)c1ccnc2ccc(OC)cc12 [QUININE] | Less-Dili-Concern | 3 |
| C[C@H](Cn1cnc2c(N)ncnc21)OCP(=O)(O)O [TENOFOVIR ANHYDROUS] | Less-Dili-Concern | 3 |
| C[C@H]1c2cccc(O)c2C(=O)C2=C(O)[C@]3(O)C(=O)C(C(N)=O)=C(O)[C@@H](N(C)C)[C@@H]3[C@@H](O)[C@@H]21.O [DOXYCYCLINE] | Less-Dili-Concern | 3 |
| O=C(O)CN(CCN(CC(=O)O)CC(=O)O)CCN(CC(=O)O)CC(=O)O [PENTETIC ACID] | No-Dili-Concern | 0 |
| COc1ccc2c3c1O[C@H]1C(=O)CC[C@@]4(O)[C@@H](C2)N(C)CC[C@]314 [OXYCODONE] | No-Dili-Concern | 0 |
| NS(=O)(=O)Cc1noc2ccccc12 [ZONISAMIDE] | Less-Dili-Concern | 2 |
| CCc1nc(N)nc(N)c1-c1ccc(Cl)cc1 [PYRIMETHAMINE] | Less-Dili-Concern | 3 |

| Molecule | DILI_Concern (Homo sapiens [1]) | DILI_severity_class (Homo sapiens [2]) |
| --- | --- | --- |
| O=C(O)C[C@H](O)C[C@H](O)/C=C/c1c(C2CC2)nc2ccccc2c1-c1ccc(F)cc1 [PITAVASTATIN] | Ambiguous-Dili-Concern | 3 |
| CCN1CCN(C(=O)N[C@@H](C(=O)N[C@@H]2C(=O)N3C(C(=O)O)=C(CSc4nnnn4C)CS[C@H]23)c2ccc(O)cc2)C(=O)C1=O [CEFOPERAZONE] | Less-Dili-Concern | 3 |
| CC[C@@H]1C(=O)OC[C@@H]1Cc1cncn1C [PILOCARPINE] | Ambiguous-Dili-Concern | 3 |
| Oc1ccc2c(c1)[C@@]13CCCC[C@@]1(O)[C@@H](C2)N(CC1CCC1)CC3 [BUTORPHANOL] | No-Dili-Concern | 0 |
| CN1CC[C@]23c4c5ccc(O)c4O[C@H]2C(=O)CC[C@H]3[C@H]1C5 [HYDROMORPHONE] | Ambiguous-Dili-Concern | 3 |
| C#Cc1cccc(Nc2ncnc3cc(OCCOC)c(OCCOC)cc23)c1 [ERLOTINIB] | Most-Dili-Concern | 8 |
| CCOC(=O)[C@H](CCc1ccccc1)N[C@@H](C)C(=O)N1Cc2ccccc2C[C@H]1C(=O)O | Less-Dili-Concern | 3 |
| C[C@]12CCC(=O)C=C1CC[C@@H]1[C@@H]2CC[C@@]2(C)[C@H]1CC[C@]2(C)O [METHYLTESTOSTERONE] | Less-Dili-Concern | 2 |
| CC(C)(C)NCC(O)c1cc(O)cc(O)c1 (stereo not drawn) [TERBUTALINE] | Less-Dili-Concern | 3 |
| enfuvirtide | Ambiguous-Dili-Concern | 3 |
| CNNCc1ccc(C(=O)NC(C)C)cc1 [PROCARBAZINE] | Less-Dili-Concern | 3 |
| CO/N=C(\C(=O)N[C@@H]1C(=O)N2C(C(=O)[O-])=C(C[N+]3(C)CCCC3)CS[C@H]12)c1csc(N)n1 | Less-Dili-Concern | 3 |
| O=C1O[C@H]([C@@H](O)CO)C(O)=C1O [ASCORBIC ACID] | No-Dili-Concern | 0 |
| O=C1CCc2cc(OCCCCc3nnnn3C3CCCCC3)ccc2N1 [CILOSTAZOL] | Ambiguous-Dili-Concern | 5 |
| Nc1nc2c(ncn2COCCO)c(=O)[nH]1 [ACYCLOVIR] | Less-Dili-Concern | 5 |
| C1CNCCN1.C[C@]12CC[C@@H]3c4ccc(OS(=O)(=O)O)cc4CC[C@H]3[C@@H]1CCC2=O [ESTROPIPATE] | Ambiguous-Dili-Concern | 2 |
| C[N+]1(C)CCC(OC(=O)C(O)(c2ccccc2)C2CCCC2)C1 (stereo not drawn) [GLYCOPYRRONIUM] | No-Dili-Concern | 0 |
| LANTHANUM CARBONATE | No-Dili-Concern | 0 |
| CC[C@H](C)[C@H](NC(=O)[C@H](CCC(=O)O)NC(=O)[C@H](CO)NC(=O)[C@@H](NC(=O)[C@@H](N)CO)C(C)C)C(=O)N[C@@H](CCC(N)=O)C(=O)N[C@@H](CC(C)C)C(=O)N[C@@H](CCSC)C(=O)N[C@@H](Cc1cnc[nH]1)C(=O)N[C@@H](CC(N)=O)C(=O)N[C@@H](CC(C)C)C(=O)NCC(=O)N[C@@H](CCCCN)C(=O)N[C@@H](Cc1cnc[nH]1)C(=O)N[C@@H](CC(C)C)C(=O)N[C@@H](CC(N)=O)C(=O)N[C@@H](CO)C(=O)N[C@@H](CCSC)C(=O)N[C@@H](CCC(=O)O)C(=O)N[C@@H](CCCN=C(N)N)C(=O)N[C@H](C(=O)N[C@@H](CCC(=O)O)C(=O)N[C@@H](Cc1c[nH]c2ccccc12)C(=O)N[C@@H](CC(C)C)C(=O)N[C@@H](CCCN=C(N)N)C(=O)N[C@@H](CCCCN)C(=O)N[C@@H](CCCCN)C(=O)N[C@@H](CC(C)C)C(=O)N[C@@H](CCC(N)=O)C(=O)N[C@@H](CC(=O)O)C(=O)N[C@H](C(=O)N[C@@H](Cc1cnc[nH]1)C(=O)N[C@@H](CC(N)=O)C(=O)N[C@@H](Cc1ccccc1)C(=O)O)C(C)C)C(C)C [TERIPARATIDE] | No-Dili-Concern | 0 |
